Consider 13 compounds from patent publication US8466203B2, “Method of stabilizing human eye tissue by reaction with nitrite and related agents such as nitro compounds” (priority 2006, dated 2013).

Data set [1] has as its system porcine sclera. The experiment in a line: Thermal shrinkage temperature analysis of porcine scleral strips. As to conditions: for shift in Ts (in words): neutral pH, up to 100 mM. The text has this: (§1) Thermal shrinkage temperature or denaturation temperature (Ts) is a technique that has been used for decades in studying collagen cross-linking. As collagen fibers are progressively heated, a threshold temperature is reached at which point disruption of hydrogen bonding in the collagen molecule triple helix occurs, resulting in unwinding of the triple helices. The denaturation of tertiary protein structure results in a rapid shrinkage of the tissue of up to 80%. This phenomenon can be expressed in various ways including temperature of onset of tissue shrinkage, temperature at maximal tissue shrinkage, and temperature at 50% of maximal tissue shrinkage, for example. In addition, differential scanning calorimetry (DSC) is related to thermal shrinkage temperature analysis and is widely used to evaluate biomaterial cross-linking. Thermal shrinkage temperature is essentially a simplified version of DSC and can be used effectively to screen the cross-linking efficacy of compounds. For the purposes of this study, the onset of shrinkage is considered the Ts and the temperature at which 50% of maximal shrinkage has occurred is T50. Graphs depicting the relationship between degree of shrinkage and temperature indicate differences in degree of cross-linking between groups. Thus, stabilization of collagen fiber structures through non-enzymatic cross-linking increases Ts and T50.
(§2) This system can perform multiple Ts assays in succession, allowing rapid screening of a number of potential cross-linking agents and conditions. […] Inlet and outlet fittings allow for constant circulation of heated water which is modulated by a digitally controlled water bath equipped with a water pump. The entire box is placed on a digital photo scanner connected to a Windows based computer. Beginning at 50° C. the temperature is raised at a rate of 1° C./min and serial scans are taken at every degree increase in temperature up to 80° C. […] As the tissue shrinks, the images are captured by the scanner. The image files are later analyzed for 2-dimensional area using NIH Image J software and % shrinkage calculations are made using Microsoft Excel for graphing purposes. This method obviates the need for removal of tissue pieces from the water bath with manual micrometer measurements as described by the UVR group (Spoerl, E., et al., 2004).
Using this simple, reproducible assay enables the screening of a number of compounds for cross-linking efficacy. This is first performed using porcine eyes because of their low cost. Follow up studies can be performed using human eyes. Porcine eyes are obtained within 6 hrs of sacrifice (Hatfield Meat Packing, Inc., Hatfield Pa.). Eyes showing clear corneas and intact epithelia are chosen for study. […] Each strip is then cross-linked using a nitro agent. […] Opthalmol. 1999; 117:166-169) for 24-96 hrs. Following incubation, the samples are evaluated for degree of cross-linking using the Ts assay as described above.
From the data, Ts curves are generated for each compound and condition studied. Each data point is the average of 3 independent samples.

Data set [2] has as its system porcine cornea. Kind of data set: Thermal shrinkage temperature analysis of porcine corneal strips.
Description: as §1, §2
Using this simple, reproducible assay enables the screening of a number of compounds for cross-linking efficacy. This is first performed using porcine eyes because of their low cost. Follow up studies can be performed using human eyes. Porcine eyes are obtained within 6 hrs of sacrifice (Hatfield Meat Packing, Inc., Hatfield Pa.). Eyes showing clear corneas and intact epithelia are chosen for study. […] Each strip is then cross-linked using a nitro agent. The incubation solution is 20% Dextran (T500) [to prevent tissue swelling] in 0.2 M NaH2PO4/Na2HPO4 (pH 7.4) with various concentrations of nitro agent (i.e. 1, 10, and 100 mM). […] The samples are then placed in 2 mL microcentrifuge tubes with 1 mL of incubation solution and reacted in a 34° C. water bath (simulating corneal temperature—Girardin, F., et al., “Relationship between corneal temperature and finger temperature,” Arch. Opthalmol. 1999; 117:166-169) for 24-96 hrs. Following incubation, the samples are evaluated for degree of cross-linking using the Ts assay as described above.

Data set [3] relates to porcine cornea. The experiment in a line: Yellowing of cross-linked porcine cornea. On the procedure: (§3) These images were taken from tissues cross-linked with nitrite and the β-nitro alcohols 2-nitroethanol, 2-nitro-1-propanol, and […], for 48 hrs. […] Fresh porcine corneal strips and corneoscleral complexes were obtained within 6 hrs of sacrifice and incubated at 37° C. in buffered solutions (pH 7.4) containing 20% Dextran (T500) and either 100 mM NaNO2 or 100 mM of one each of the β-nitro alcohols. After 48 hrs, the following images were obtained. […] FIGS. 13 (B and D)
As such, the effects on corneal light transmission induced by cross-linking with β-nitro alcohols was evaluated using a method adopted from Dillon et al 2004.

In data set [4] the test system is primary bovine corneal endothelial cells. Conditions: bovine, 48 h.
Data set [5] relates to porcine cornea. Kind of data set: Gross stiffness of porcine corneal strips handled with a forceps. Conditions: 100 mM, pH 7.4, 37° C., 48 hrs. As for the experimental part:
Fresh porcine corneal strips and corneoscleral complexes obtained within 6 hrs of sacrifice and incubated at 37° C. in buffered solutions (pH 7.4) containing 20% Dextran (T500) and either 100 mM NaNO2 or 100 mM of one each of the specified β-nitro alcohols
as §3

The subject of data set [6] is human fibroblasts. Conditions: Sung 1998; cited from earlier work.
[7] abbreviates: 100 mM reagent, pH 7.4, 37° C., 96 hrs.
Where [8] appears, read: 1 mM reagent, pH 7.4, 37° C., 96 hrs.
The mark [9] stands for this setting: 10 mM reagent, pH 7.4, 37° C., 96 hrs.
Where [10] appears, read: 100 mM, 24 hrs reaction, pH 7.4.

With `NCCO` [2-aminoethanol, reference compound], in data set [1] (setting [7]), the “T50 (temperature at 50% of maximal shrinkage)” value stood at 67.9 °C, the “T50 Δ (change in 50% shrinkage temperature compared to control)” value is 2.6 °C and the “Ti (temperature at 1% absolute shrinkage)” value was determined as 64.3 °C. Moreover, the “shift in Ts (in words)” value in data set [1] is “only a marginal shift in Ts”.

For the compound `CCCC(CO)[N+](=O)[O-]` (stereo not drawn) [2-nitro-1-pentanol], the “shifts in Ts (in words)” value in data set [2] is “produce shifts in Ts”. Moreover, the “yellowing (tinting)” value in data set [3] is given as “without producing yellowing”.

`CC(CO)[N+](=O)[O-]` (stereo not drawn) [2-nitro-1-propanol]: in data set [2], the “shifts in Ts (in words)” value is “produce shifts in Ts”. The compound further displayed a highest tolerated level in data set [4] of 0.75 mM. Moreover, in data set [1] (setting [8]), the “T50 (temperature at 50% of maximal shrinkage)” value came to 66.0 °C, the “T50 Δ (change in 50% shrinkage temperature compared to control)” value stood at 0.7 °C and the “Ti (temperature at 1% absolute shrinkage)” value turned out to be 63.0 °C. Also, in data set [1] (setting [9]), the “T50 (temperature at 50% of maximal shrinkage)” value turned out to be 67.5 °C, the “T50 Δ (change in 50% shrinkage temperature compared to control)” value was 2.2 °C and the “Ti (temperature at 1% absolute shrinkage)” value amounted to 64.4 °C. In data set [1] (setting [7]), the “T50 (temperature at 50% of maximal shrinkage)” value was 72.7 °C, the “T50 Δ (change in 50% shrinkage temperature compared to control)” value worked out at 7.4 °C and the “Ti (temperature at 1% absolute shrinkage)” value was 69.5 °C. In data set [3], the “yellowing (tinting)” value was “without producing yellowing”. Also, the “stiffness change when handled with a forceps” value in data set [5] is listed as “intermediate effect”.

Consider `CC[N+](=O)[O-]` [2-nitroethane, reference compound], for which, in data set [1] (setting [9]), the “T50 (temperature at 50% of maximal shrinkage)” value was determined as 65.4 °C, the “T50 Δ (change in 50% shrinkage temperature compared to control)” value was found to be 0.1 °C and the “Ti (temperature at 1% absolute shrinkage)” value was determined as 62.5 °C. Further, in data set [1] (setting [7]), the “T50 (temperature at 50% of maximal shrinkage)” value amounted to 65.3 °C, the “T50 Δ (change in 50% shrinkage temperature compared to control)” value stood at 0 °C and the “Ti (temperature at 1% absolute shrinkage)” value was found to be 62.5 °C. For the same compound, the “shift in Ts (in words)” value in data set [1] is reported as “did not shift the Ts to any extent”.

As to `O=[N+]([O-])c1ccccc1O` [2-nitrophenol, reference compound], in data set [1] (setting [8]), the “T50 (temperature at 50% of maximal shrinkage)” value amounted to 65.2 °C, the “T50 Δ (change in 50% shrinkage temperature compared to control)” value is −0.1 °C and the “Ti (temperature at 1% absolute shrinkage)” value turned out to be 62.2 °C. Moreover, in data set [1] (setting [9]), the “T50 (temperature at 50% of maximal shrinkage)” value was 65.6 °C, the “T50 Δ (change in 50% shrinkage temperature compared to control)” value came out at 0.3 °C and the “Ti (temperature at 1% absolute shrinkage)” value amounted to 62.3 °C. Also, in data set [1] (setting [7]), the “T50 (temperature at 50% of maximal shrinkage)” value was found to be 66.0 °C, the “T50 Δ (change in 50% shrinkage temperature compared to control)” value was found to be 0.7 °C and the “Ti (temperature at 1% absolute shrinkage)” value worked out at 62.9 °C. For the same compound, the “shift in Ts (in words)” value in data set [1] is on record as “very little shift in Ts”.

`CCC(C(C)O)[N+](=O)[O-]` (stereo not drawn) [3-nitro-2-pentanol] showed a highest tolerated level in data set [4] of 2 mM. Besides, the “T50 (temperature at 50% of maximal shrinkage)” value in data set [1] (setting [8]) was determined as 66.2 °C; in data set [1] (setting [9]), 67.7 °C; in data set [1] (setting [7]) it was 70.7 °C. For the same compound, the entries for the “T50 Δ (change in 50% shrinkage temperature compared to control)” value in data set [1] (setting [8]), in data set [1] (setting [9]) and in data set [1] (setting [7]) were 0.9 °C, 2.4 °C and 5.4 °C, respectively. Besides, the “Ti (temperature at 1% absolute shrinkage)” value in data set [1] (setting [8]) came to 62.5 °C; in data set [1] (setting [9]) it was 65.3 °C; in data set [1] (setting [7]), 68.3 °C. For the same compound, the “stiffness change when handled with a forceps” value in data set [5] is given as “dramatic stiffness change”.

Regarding `NCCN(CCN)/[N+]([O-])=N/O` [DETA/NONO, diethylenetriaamine NONOate, reference compound], in data set [1] (setting [7]), the “T50 (temperature at 50% of maximal shrinkage)” value came to 65.5 °C and the “T50 Δ (change in 50% shrinkage temperature compared to control)” value amounted to 0.2 °C. Further, the “shift in Ts (in words)” value in data set [1] is given as “Neither compound was able to shift Ts parameters”.

Regarding `C[S+](C)[O-]` [DMSO, reference compound], in data set [1] (1% reagent, pH 7.4, 96 hrs), the T50 is 65.0 °C and the “T50 Δ” value is −0.3 °C.

Regarding `NCCCN(CCCN)/[N+]([O-])=N/O` [DPTA/NONO, dipropylenetriamine NONOate, reference compound], the T50 turned out to be 66.4 °C in data set [1] (10 mM, 24 hrs reaction, pH 7.4) and 66.2 °C in data set [1] (setting [10]). Also, the “T50 Δ” value in data set [1] (10 mM, 24 hrs reaction, pH 7.4) was 1.1 °C; in data set [1] (setting [10]), 0.9 °C. Further, in data set [1], the “shift in Ts (in words)” value was “Neither compound was able to shift Ts parameters”.

Take `CCO` [Ethanol, reference compound]: in data set [1] (setting [7]), the “T50 (temperature at 50% of maximal shrinkage)” value turned out to be 65.2 °C and the “T50 Δ (change in 50% shrinkage temperature compared to control)” value is −0.1 °C.

With `C=O` [Formaldehyde, reference compound], in data set [1] (pH 7.4), the “T50 (temperature at 50% of maximal shrinkage)” value was determined as 67.7 °C and the “T50 Δ (change in 50% shrinkage temperature compared to control)” value came out at 2.4 °C.

As to `O=CCCCC=O` [Glutaraldehyde, reference compound], in data set [1] (setting [8]), the “T50 (temperature at 50% of maximal shrinkage)” value was 68.9 °C and the “T50 Δ (change in 50% shrinkage temperature compared to control)” value worked out at 3.6 °C. In addition, the “potency as a cross-linking agent relative to 2-nitroethanol” value in data set [1] (at moderate levels of T50 shift (~4° C.)) was “approximately 10 ×”.

Consider `COC(=O)C1=CO[C@@H](O)[C@@H]2C(CO)=CC[C@H]12` [genipin], for which, in data set [6], the “tolerable level relative to epoxy” value is listed as “more than 20 ×” and the “tolerable level relative to glutaraldehyde” value is “more than 100 ×”.
